We go through 3 compounds from article PMC12851007 (Angewandte Chemie (International Ed. in English), 2025).

Read-outs that look alike come from different tables or passages of the source.

The format of test [1] is binding. Conditions: LCG displacement in 10 mM Hepes, pH 7.0, 25 °C; fluorescence; error = SD of nonlinear fit, n = 1. As for the experimental part:
Fluorescence titrations were performed as previously described and the resulting titration curves we re an al yz ed usi ng established pro cedur es . Competitive titrations were eithe r anal yz ed with a fitting function assuming 1:1 host-competitor complexes[3] or with a fitting function involving hi gher complex es with more than on e h ost bound per peptide.[4] In the latter c ase, an identical binding affinity is assumed for all binding sites. […]
Figure S1. a) Fluorescence titration of 0.5 µM LCG ( λex = 369 n m) with varying concentrations of CX4 in 10 mM Hepes, pH 7.0, 25 °C .b) Respective titration curve ( λem = 502 nm) with fitted line . […]
Figure S2. a) Competitive fluorescence titration wit h 0.5 µM LCG, 1 µM CX4 ( λex = 369 nm) and varying concentrations of penetratin in 10 mM Hepes, pH 7.0, 25 °C . b) Respective titration c ur ve (λem = 502 nm) with fitted line .
(also on this page, place not known: analyzed using procedures. were either analyzed host -competitor higher complexes one host case, 700 Intensity Intensity (λex °C. line. 650 0 Intensity 0 Intensity b) curve (λem nm) with line.)

Test [2] in a line: Dual-channel assay, CX4/LCG channel, POPC vesicles. The class given is in vitro ADME. Conditions: dual-channel; seven independent POPC LUV batches (n = 7), penetratin 15 µM, Pep-1 10 µM, LRLLRW 30 µM, TP10 0.15 µM, 10 mM Hepes, 175 mM glucose, pH 7.5, t-test/ANOVA p < 0.001; melittin: Figure S35 and Table S9. The source says:
With the established identical extravesicular conditions in both assays, we further envisaged a simultaneous measurement of both assays within the same solution to enhance the comparability of the measurements. This became possible after optimization of the excitation and emission wavelengths. […] A further optimization was required, because the dye concentrations in the CF assay and the CX4/LCG assay are largely different.^[ [51], [52] ^] Consequently, simultaneous monitoring requires the detection of a low amount of LCG in the presence of a high concentration of the much more brightly fluorescent CF, which challenges the dynamic range of a typical fluorescence spectrometer in a dual‐channel measurement. To reduce the fluorescence read‐out of CF, the excitation wavelength was shifted from the absorption maximum at ca. 490 nm to 525 nm, where CF has a much lower absorbance, and the emission in the CF channel was shifted from its maximum at ca. 515 nm to 545 nm to further reduce the fluorescence of CF. To maintain a high LCG fluorescence, excitation was performed at the absorption maximum at 369 nm. Since CF has a residual absorbance at this excitation wavelength, emission in the LCG channel was monitored at 475 nm instead of 502 nm to eliminate spill‐over of CF fluorescence into the LCG channel. […]
Time-dep endent fluores cence intensit y traces, I (t), were subsequentl y normalized to fractional intensities, If(t), using equation (1) and the concentration- dependent fractional intensities just before the addition of th e calibration co cktail, I f, w ere then normaliz ed to fr actional membran e activities, Y, using equation (2). The fractional membrane activities, Y, were subsequently plotted against the peptide concentration, c, and anal ysed using the Hill equation (3) to obtain the effective molar concentration, EC 50, and the Hill coefficient, n. For peptides with too low activity to determine Y max ex perimentall y, Y max was fixed at 1.0 during fitting. […]
Dual-Channel Measurements
Vesicles w ere prep ared a s described abov e (se e en try (4) in Table S2 and entry (3) in Table S3) and eluted with freshl y prepared 10 mM Hepes, 175mM glucos e, pH 7.5 i n the size exclusion chromatograph y. For the measurements, an approp riate volume o f the liposome stock solutions was diluted to 2m L in a 10× 10 mm PS cuvette wi th 10 mM Hep es bu ffer and 175 mM glucos e at pH 7.5 to afford 12.5µM POPC ⊃CX4/LCG-LUVs and 12.5 µM POPC⊃CF-LUVs (25 µM POPC total). The cuvette was placed into a thermostatted fluorimeter sample holder at 25.0 °C and gentl y stirred at 300 rpm. The fluorescence intensity w as simultaneous l y r eco rded in the CF chann el ( λ exc = 525 nm, λ em = 545 nm) and in the LCG channel ( λ exc = 369 nm, λ em = 475 nm) with an ex citation slit width of 5 nm and an emission slit width of 5 n m during addition of 20 µL peptide stock solution of varying concentrations at 60 s and 20 µL of a calibration

The nature of test [3]: CX4/LCG tandem membrane assay with subsequent addition of spermine (transient vs stable pores). Format: in vitro ADME. The settings on record: TP10 0.2 µM or melittin 5 nM at 60 s, spermine 20 µM at 340 s, 10 mM Hepes, 175 mM glucose, pH 7.5. On the procedure:
This means that TP10 renders the vesicle membranes only transiently permeable, while after some time, the pores “close”, most likely due to equilibration of the inside and outside concentrations of TP10. At sufficiently low TP10 concentrations, the vesicles have consequently released only some of their content after a certain incubation time and no further release of encapsulated compounds is observed thereafter. The transient nature of the TP10 pores was also confirmed herein by the CX4/LCG tandem membrane assay (Figure 4, black line). […] At this point of time, the TP10 pores should be either closed, or there should be some remaining stable equilibrium pores, which are too small to allow efflux of relatively large CX4 and/or LCG (MW > 500 Da), but sufficiently large to allow CF efflux (MW = 376 Da). Closed pores would refer to the previously reported graded mechanism, whereas the latter would point toward an all‐or‐none release mechanism.^[ [12], [70] ^] […] The newly developed assay has therefore the added capacity to afford more fine‐grained mechanistic information on membrane activity.
The blue trace is a control to illustrate full dissociation of the CX4/LCG complex during vesicle lysis by TX‐100.
LysisLysis vesicle lysisvesicle lysis […]
calibration cocktail at 600 s. a) Original changes in fluorescence intensity of LCG ( λex = 369 nm, λem = […]

Test [4] can be described thus: CX4/LCG supramolecular tandem membrane assay, POPC vesicles. The class given is in vitro ADME. Conditions: 30 µM peptide; 25 µM POPC⸧CX4/LCG-LUVs (inside 700 µM CX4, 500 µM LCG) in 10 mM Hepes, pH 7.0, 25 °C; fluorescence λexc 369/λem 502 nm; peptide at 60 s, TX-100/protamine at 600 s; fractional activity; n = 1. On the procedure:
Membrane Activity M easurements
Vesicle preparation. 100 µ L of a solution of 25 mg/ml of POPC in chloroform or 200 µ L of a solution of 25 mg/ml of EYPC in chloroform was purged with nitrogen and dried overnight under hi gh vacuum. The thin lipid film was rehydrated with 1 ml reh ydrati on buffer (= inside buffer, see Tabl e S2 ) b y agitation at room temperature for 30min and then subjected to 2 0 freeze- th aw c ycles (freezing in liquid nitro gen and thawing at 40 °C). […]
Ta b l e S 2. Combinations of lipids and inside and outside buffer for CX4/LCG -LUVs.
No. Lipid Inside buffer = rehydration buffer Outside buffer
(4) POPC 10 mM Hepes, 700 µM CX4, 500 µM LCG, 10 mM Hepes buffer, 175 mM glucose, pH 7.5 [a] 175 mM glucose, pH 7.5 [a]
[a] Glucose b uffers (183 mOsm/L at 25 °C) were used within one week after preparation.
Vesicle quality control. T o ensure the absence of the CX4/ LCG reporter pair in the ex travesicular ph ase, 20 µL of the collected liposome fr action w as diluted to 2 ml with outside buffer and the fluor escen ce (λ exc = 369 nm; λ em = 502 nm) was recorded during the addition of […]
The final lipid content in the liposome suspension after p repa rat ion and separ ation was d etermined b y NMR as p reviousl y reported. Assay protocol. An appropriate volume of the liposome stock solutions was diluted to 2m L with outside buffer in a 10 ×10 mm quartz glass cuvette to afford a phospholipid concentration of 25 µM. The cuvette was placed into a thermostatted fluorimeter sample holder at 25.0 °C and gentl y stirred at 300 rpm. Subsequently, the time-dependent change in fluorescence intensity (λ exc = 369 nm; λ em = 502 nm) was record ed during addition of 20 µ L of peptide stock solutions of varying concentrations at 60 s. At 600 s, 20µ L o f a solution containing 1.6% (wt/vol) TX-100 and 1.5 mM protamine was added for calibration to affo rd 0.016% (wt/vol) TX-100 and 15 µM protamine final concent rations.
Time-dep endent fluores cence intensit y traces, I (t), were subsequentl y normalized to fractional intensities, If(t), using equation (1). Therein, I 0 is the intensity just before addition of peptide and I ∞ is the constant intensit y after addition of the calibration cockt ail.
IIf (tt ) = II (tt )−II0II∞ − II0 (1)
The concentration-dependent fractional intensities just before the addition of the calibration cocktail, If, were then normalized to fractional membrane activities, Y, using equation (2).
Therein, If,0 is the fractional intensit y just before addition of the calibration cocktail in absence of peptide and I f,∞ is the constant fractional intensity after addition of the calibration cocktail.
YY = IIf − IIf,0IIf,∞ − IIf,0 (2)
The fractional membrane activities, Y, were subsequently plotted against the peptide concentration, c, and analysed using the Hill equation (3) to obtain the effective molar concentration, EC50, and the Hill coefficient, n. Y0 and Y ma x are the fractional membrane activities in absen ce o f p eptide and at max imal peptide concent rations. For peptides with too little activity to determine Y ma x ex perimentall y, Y max was fixed at 1.0 during fitting. […]

The conditions of test [5]: In 10 mM NaH2PO4, pH 7.2; ref [46]; cited from earlier work. The text has this: Table 1 Binding constants of peptides to CX4. ^a) | column: K a (M^−1)

In the case of `CC[C@H](C)[C@H](NC(=O)CN)C(=O)NCC(=O)N[C@@H](C)C(=O)N[C@H](C(=O)N[C@@H](CC(C)C)C(=O)N[C@@H](CCCCN)C(=O)N[C@H](C(=O)N[C@@H](CC(C)C)C(=O)N[C@H](C(=O)N[C@H](C(=O)NCC(=O)N[C@@H](CC(C)C)C(=O)N1CCC[C@H]1C(=O)N[C@@H](C)C(=O)N[C@@H](CC(C)C)C(=O)N[C@H](C(=O)N[C@@H](CO)C(=O)N[C@@H](Cc1c[nH]c2ccccc12)C(=O)N[C@H](C(=O)N[C@@H](CCCCN)C(=O)N[C@@H](CCCNC(=N)N)C(=O)N[C@@H](CCCCN)C(=O)N[C@@H](CCCNC(=N)N)C(=O)N[C@@H](CCC(N)=O)C(=O)N[C@@H](CCC(N)=O)C(N)=O)[C@@H](C)CC)[C@@H](C)CC)[C@@H](C)O)[C@@H](C)O)C(C)C)C(C)C` [Melittin], the “K a, binding constant of peptide to CX4” value in test [1] is “(1.2 ± 0.3) × 10^7 M^−1”. Besides, the “membrane activity in the CX4/LCG channel compared with the CF channel” value in test [2] was “higher activity with the CF assay”. Also, the “kind of pores (fluorescence response to spermine added after the peptide)” value in test [3] was “forms stable equilibrium pores”.

Turning to `N=C(N)NCCC[C@H](NC(=O)[C@H](CCCNC(=N)N)NC(=O)[C@H](CCCNC(=N)N)NC(=O)[C@H](CCCNC(=N)N)NC(=O)[C@H](CCCNC(=N)N)NC(=O)[C@H](CCCNC(=N)N)NC(=O)[C@@H](N)CCCNC(=N)N)C(=O)O` [Peptide R7, heptaarginine], the “Y30µM, membrane activity, CX4/LCG assay” value in test [4] is given as 0.17. Also, in test [5], the “K a, binding constant of peptide to CX4” value is “(7.2 ± 0.5) × 10^7 M^−1”.

For the compound `N=C(N)NCCC[C@H](NC(=O)[C@H](CCCNC(=N)N)NC(=O)[C@H](CCCNC(=N)N)NC(=O)[C@H](CCCNC(=N)N)NC(=O)[C@H](CCCNC(=N)N)NC(=O)[C@H](CCCNC(=N)N)NC(=O)[C@H](CCCNC(=N)N)NC(=O)[C@H](CCCNC(=N)N)NC(=O)[C@@H](N)CCCNC(=N)N)C(=O)O` [Peptide R9, nonaarginine], the “K a, binding constant of peptide to CX4” value in test [1] is given as “(1.8 ± 0.4) × 10^8 M^−1”. Besides, the “Y30µM, membrane activity, CX4/LCG assay” value in test [4] came to 0.11.
